Values joined by “and” are separate entries in the source; they are usually repeats but may differ in a detail not shown here. Identical values can stand only once. Inconclusive results are not listed. Active and inactive are the calls of the source. The rule behind the calls is not given here.
Assay: Starved TB CFU, imaging assay, inhibitor dose response, confirmatory stage (AID 743450)
Details: not given

| SMILES | AC90 |
| --- | --- |
| Cn1c(NC(=O)c2ccc3ccccc3c2)nc2ccccc21 | 6.5 µM |
| Cn1c(NC(=O)c2ccc(-c3ccccc3)cc2)nc2ccccc21 | 6.25 µM |
| O=C(Nc1nc2ccccc2n1CCN1CCCCC1)c1ccccc1 | 12.3 µM |
| COCCn1c(NC(=O)c2ccccc2)nc2ccccc21 | 2.23 µM |
| Cn1c(NC(=O)c2ccncc2)nc2ccccc21 | 15 µM |
| Cn1c(NC(=O)c2ccccc2)nc2ncccc21 | 2.23 µM |
| Cn1c(NC(=O)c2ccccc2)nc2c3cccnc3ccc21 | 12 µM |
| COc1cccc2c1nc(NC(=O)c1ccccc1)n2C | 3.66 µM |
| Cc1cc(C(=O)Nc2nc3ccccc3n2C)c(C)o1 | 9.93 µM |
| Cn1c(NC(=O)c2ccc(Cl)cc2)nc2ccccc21 | 12.3 µM |
| CC(C)Oc1ccc(C(=O)Nc2nc3ccccc3n2C)cc1 | 6.98 µM |
| COc1ccc(C(=O)Nc2nc3ccccc3n2C)cc1OC | 11.3 µM |
| COc1ccc(C(=O)Nc2nc3ccccc3n2C)cc1 | 3.71 µM |
| Cn1c(NC(=O)c2ccccc2C(F)(F)F)nc2ccccc21 | 7.01 µM |
| Cn1c(NC(=O)c2ccccc2)nc2ccccc21 | 4.27 µM and 4.2 µM |
| Cn1c(NC(=O)c2ccccc2NC(=O)c2ccccc2)nc2ccccc21 | 5.02 µM |
| Cn1c(NC(=O)c2ccccc2F)nc2ccccc21 | 4.84 µM |
| CC(C)n1c(NC(=O)c2ccccc2)nc2ccccc21 | 6.68 µM |
| Cn1c(NC(=O)c2ccc(F)cc2)nc2ccccc21 | 5.03 µM |
| Cn1c(NC(=O)c2ccccc2)nc2ccc3ncccc3c21 | 6.35 µM |

| SMILES | AC90 |
| --- | --- |
| O=C(Nc1nc2ccccc2n1C1CC1)c1ccccc1 | 4.84 µM |
| Cn1c(NC(=O)c2ccccc2)nc2c3ncccc3ccc21 | 1.18 µM |
| Cn1c(NC(=O)c2cccnc2)nc2ccccc21 | 5.75 µM |
| COc1ccccc1C(=O)Nc1nc2ccccc2n1C | 5.86 µM |
| CCN(CC)CCn1c(NC(=O)c2ccccc2)nc2ccccc21 | 7.31 µM |
| O=C(Nc1nc2ccccc2[nH]1)c1ccccc1 | 12.3 µM |
| Cn1c(NC(=O)c2ccc(C(C)(C)C)cc2)nc2ccccc21 | 6.68 µM |
| CCCn1c(NC(=O)c2ccccc2)nc2ccccc21 | 6.02 µM |
| Cn1c(NC(=O)c2ccccc2)nc2c(F)cccc21 | 10.1 µM |
| COc1ccc2c(c1)nc(NC(=O)c1ccccc1)n2C | 4.26 µM |
| Cn1c(NC(=O)c2ccccc2)nc2c3nccnc3ccc21 | 1.37 µM |
| Cc1cccc(C(=O)Nc2nc3ccccc3n2C)c1 | 8.9 µM |
| O=C(Nc1nc2ccccc2n1C1CCCCC1)c1ccccc1 | 8.07 µM |
| Cc1ccc(C(=O)Nc2nc3ccccc3n2C)cc1 | 4.71 µM |
| Cn1c(NC(=O)c2ccccc2)nc2cc(F)ccc21 | 4.55 µM |
| Cn1c(NC(=O)c2ccccc2)nc2cc(C#N)ccc21 | 7.91 µM |
| Cn1c(NC(=O)c2ccccn2)nc2ccccc21 | 5.17 µM |
| Cc1ccc2c(c1)nc(NC(=O)c1ccccc1)n2C | 13.6 µM |
| Cn1c(NC(=O)c2ccccc2Cl)nc2ccccc21 | 4.64 µM |
| CCCCn1c(NC(=O)c2ccccc2)nc2ccccc21 | 7.88 µM |

| SMILES | AC90 |
| --- | --- |
| Cn1c(NC(=O)c2cccs2)nc2ccccc21 | 4.16 µM and 1.65 µM |
| CN(C)c1cccc(C(=O)Nc2nc3ccccc3n2C)c1 | 5.34 µM |
| Cn1c(NC(=O)c2ccccc2)nc2c3ccncc3ccc21 | 6.92 µM |
| Cn1c(NC(=O)c2ccccc2)nc2cc(Cl)ccc21 | 6.02 µM |
| Cn1c(NC(=O)c2ccccc2)nc2cc(C(F)(F)F)ccc21 | 6.01 µM |
| Cn1c(NC(=O)Cc2ccccc2)nc2ccccc21 | 3.85 µM |
| Cn1c(NC(=O)c2ccccc2)nc2cccc(Cl)c21 | 10.2 µM |
| Cn1c(NC(=O)c2ccccc2)nc2ccc(F)cc21 | 4.72 µM |
| Cn1c(NC(=O)c2ccc(OC(F)(F)F)cc2)nc2ccccc21 | 6.61 µM |
| Cn1c(NC(=O)c2cccc(Cl)c2)nc2ccccc21 | 5.55 µM |
| Cn1c(NC(=O)c2ccc(F)c(F)c2)nc2ccccc21 | 19.9 µM |
| COc1cccc(C(=O)Nc2nc3ccccc3n2C)c1 | 6.18 µM |
| O=C(Nc1nc2ccccc2n1Cc1ccccc1)c1ccccc1 | 6.74 µM |
| O=C(Nc1nc2ccccc2n1-c1ccccc1)c1ccccc1 | > 26 µM (inactive) |
| Cn1c(NC(=O)c2cccc(OC(F)F)c2)nc2ccccc21 | 22.3 µM |
| Cn1c(NC(=O)c2cccc(F)c2)nc2ccccc21 | 7.51 µM |
| CN(C(=O)c1ccccc1)c1nc2ccccc2n1C | > 26 µM (inactive) |
| Cn1c(NC(=O)c2cccc3ccccc23)nc2ccccc21 | 2.81 µM |
| CCn1c(NC(=O)c2ccccc2)nc2ccccc21 | 5.52 µM |
| Cn1c(NC(=O)c2ccccc2)nc2c(C#N)cccc21 | 5.26 µM |

Same assay, conditions: at 26 µM (top of the series)

| SMILES | activity change, negative = inhibition |
| --- | --- |
| Cn1c(NC(=O)c2ccccc2)nc2cccnc21 | -100% (inactive) |
| Cn1c(NC(=O)c2ccccc2)nc2ccc(C#N)cc21 | -66% (inactive) |
| Cn1c(N)nc2ccccc21 | 3% (inactive) |
| Cn1c(NC(=O)c2cccc(C(F)(F)F)c2)nc2ccccc21 | -84% (inactive) |
| O=C(Nc1nc2ccccc2n1CCN1CCOCC1)c1ccccc1 | -51% (inactive) |
| CCn1c(NC(=O)c2cnn(Cc3ccccc3)c2)nc2ccccc21 | -74% (inactive) |

Reference: PubChem BioAssay AID743450 (Broad Institute, 2014)
